# According to US8513276B2, “Imidazo[1,2-a]pyridine compounds for use in treating cancer” (Astex Therapeutics Limited, priority 2006, dated 2013):
# Where a name gives a salt, the structure may show the parent alone. Read-outs that look alike come from different tables or passages of the source.
# Columns and labels:
# [1] = biological target: T1, FGFR3 (Homo sapiens, UniProt P22607); assay: FGFR3 in vitro kinase inhibitory activity assay (TRF); assay type: biochemical
# T1 construct: Enzymes (from Upstate) were prepared at 2× final concentration in 1× kinase assay buffer; purchased Upstate
# T1 sequence (P22607 23-806): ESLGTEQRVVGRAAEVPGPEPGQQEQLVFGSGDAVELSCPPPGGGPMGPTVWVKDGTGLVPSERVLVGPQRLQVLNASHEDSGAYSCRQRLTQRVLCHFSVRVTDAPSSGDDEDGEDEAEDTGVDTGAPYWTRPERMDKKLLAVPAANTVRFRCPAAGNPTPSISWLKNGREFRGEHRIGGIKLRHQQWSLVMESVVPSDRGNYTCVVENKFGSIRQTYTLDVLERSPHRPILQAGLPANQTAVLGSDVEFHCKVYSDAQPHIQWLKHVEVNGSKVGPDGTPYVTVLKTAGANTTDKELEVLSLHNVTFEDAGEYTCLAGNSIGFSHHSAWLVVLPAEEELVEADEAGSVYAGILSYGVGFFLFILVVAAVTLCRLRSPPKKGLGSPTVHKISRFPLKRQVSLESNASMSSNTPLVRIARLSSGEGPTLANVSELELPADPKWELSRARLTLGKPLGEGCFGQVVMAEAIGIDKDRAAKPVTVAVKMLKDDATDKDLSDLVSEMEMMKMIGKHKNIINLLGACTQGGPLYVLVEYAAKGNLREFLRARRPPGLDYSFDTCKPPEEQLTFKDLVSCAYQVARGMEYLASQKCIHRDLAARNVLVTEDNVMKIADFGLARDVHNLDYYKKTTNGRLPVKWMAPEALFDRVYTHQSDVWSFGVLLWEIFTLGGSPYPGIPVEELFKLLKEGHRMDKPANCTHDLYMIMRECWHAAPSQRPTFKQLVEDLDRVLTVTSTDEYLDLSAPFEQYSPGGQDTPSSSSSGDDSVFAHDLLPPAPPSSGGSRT
# Protocol: Enzymes (from Upstate) were prepared at 2× final concentration in 1× kinase assay buffer (as described below). Enzymes were then incubated with test compounds, biotinylated Flt3 substrate (biotin—DNEYFYV) (Cell Signalling Technology Inc.) and ATP. The reaction was allowed to proceed for 3 hours (FGFR3) or 2.5 hrs (PDGFR-beta) at room temperature on a plate shaker at 900 rpm before being stopped with 20 μl of 35 mM EDTA, pH 8 (FGFR3) or 55 mM EDTA, pH 8 (PDGFR-beta). Twenty μl of 5× detection mix (50 mM HEPES pH 7.5, 0.1% BSA, 2 nM Eu-anti-pY (PY20) (PerkinElmer) 15 nM SA-XL665 (Cisbio) for FGFR3 and 50 mM HEPES, pH 7.5, 0.5 M KF, 0.1% BSA, 11.34 nM Eu-anti-pY (PT66) (PerkinEimer), 94 nM SA-XL665 (Cisbio) for PDGFR-beta) was then added to each well and the plate sealed and incubated at room temperature for one hour on a plate shaker at 900 rpm. The plate was then read on a Packard Fusion plate reader in TRF mode.
# Kinase Assay buffers were:
# A: 50 mM HEPES pH 7.5, 6 mM MnCl2, 1 mM DTT, 0.1% TritonX-100
# [2] = system: LP-1 cell line; assay: Cell-based pERK ELISA in LP-1 multiple myeloma cells; details: Homo sapiens
# Protocol: LP-1 or JIM-1 multiple myeloma cells were seeded in 96 well plates at 1×10^6 cells/ml in 200 μl per well in serum free media. HUVEC cells were seeded at 2.5×10^5 cells/ml and allowed to recover for 24 h prior to transfer to serum free media. Cells were incubated for 16 h at 37° C. prior to the addition of a test compound for 30 minutes. Test compounds were administered at a 0.1% final DMSO concentration. Following this 30 minute incubation a FGF-1/Heparin (FGF-1 at 100 ng/ml final and Heparin at 100 ug/ml) mixture or VEGF^165 ([…]) was added to each of the wells for a further 5 minutes. The media was removed and 50 ul ERK ELISA lysis buffer (R and D Systems DuoSet ELISA for pERK and Total ERK #DYC-1940E, DYC-1018E) added. ELISA plates and standards were prepared according to the standard DuoSet protocols and the relative amounts of pERK to total ERK in each sample calculated according to the standard curve.
# In particular, compounds of the invention were tested against the LP-1 cell line (DSMZ no.: ACC 41) derived from human multiple myeloma.
# [3] = given as a bound, read-out: IC50 in the FGFR3 assay
# [4] = LP-1 cell line, given as a bound, read-out: IC50 in LP-1 pERK ELISA
# [5] = LP-1 cells, FGF-1/heparin stimulation, pERK relative to total ERK, read-out: LP-1 pERK ELISA
# [6] = in vitro kinase assay, 8 μM ATP, read-out: FGFR3 IC50
"IC50 [1, 3] [nM]","IC50 [2, 4] [nM]","IC50 [2, 5] [nM]","IC50 [1, 6] [nM]",Compound
< 1000,,,,"CS(=O)(=O)NCc1cccc(-c2ccn3c(-c4cccc(Nc5nncs5)c4)cnc3c2)c1 [Example 40, N-(3-{3-[3-([1,3,4]Thiadiazol-2-ylamino)-phenyl]-imidazo[1,2-a]pyridin-7-yl}-benzyl)-methanesulfonamide]"
< 1000,< 1000,,,"O=C(O)Cc1cccc(-c2ccn3c(-c4cccc(NCc5ccccc5)c4)cnc3c2)c1 [Example 13, {3-[3-(3-Benzylamino-phenyl)-imidazo[1,2-a]pyridin-7-yl]-phenyl}-acetic acid]"
< 1000,< 1000,8.5,16,"Cn1cc(-c2ccn3c(-c4cccc(Nc5nncs5)c4)cnc3c2)cn1 [Example 14, {3-[7-(1-Methyl-1H-pyrazol-4-yl)-imidazo[1,2-a]pyridin-3-yl]-phenyl}-[1,3,4]thiadiazol-2-yl-amine]"
< 1000,,,130,"Nc1nc(Nc2cccc(-c3cnc4cc(-c5ccc(F)cc5)ccn34)c2)n[nH]1 [Example 27, N*3*-(3-[7-(4-Fluoro-phenyl)-imidazo[1,2-a]pyridin-3-yl]-phenyl}-1H-[1,2,4]triazole-3,5-diamine]"
< 1000,< 1000,,,"Cn1cc(-c2cnc3c(-c4cccc(Nc5nncs5)c4)cnn3c2)cn1 [Example 16, {3-[6-(1-Methyl-1H-pyrazol-4-yl)-pyrazolo[1,5-a]pyrimidin-3-yl]-phenyl}-[1,3,4]thiadiazol-2-yl-amine]"
< 1000,,,,"Clc1ccn2c(-c3cccc(NCc4ccccc4)c3)cnc2c1 [the product of Procedure F8, Benzyl-[3-(7-chloro-imidazo[1,2-a]pyridin-3-yl)-phenyl]-amine]"
< 1000,< 1000,40,6.03,"Nc1ccc(-c2cnc3c(-c4cccc(Nc5nncs5)c4)cnn3c2)cn1 [Example 11, 5-{3-[3-([1,3,4]Thiadiazol-2-ylamino)-phenyl]-pyrazolo[1,5-a]pyrimidin-6-yl}-pyridin-2-ylamine hydrochloride salt]"
< 1000,< 1000,,,"c1cc(Nc2nncs2)cc(-c2cnn3cc(-c4ccncc4)cnc23)c1 [Example 17, [3-(6-Pyridin-4-yl-pyrazolo[1,5-a]pyrimidin-3-yl)-phenyl]-[1,3,4]thiadiazol-2-yl-amine]"
< 1000,< 1000,,,"Nc1cccc(-c2ccn3c(-c4cccc(Nc5nncs5)c4)cnc3c2)c1 [Example 32, {3-[7-(3-Amino-phenyl)-imidazo[1,2-a]pyridin-3-yl]-phenyl}-[1,3,4]thiadiazol-2-yl-amine Hydrochloride]"
< 1000,< 1000,,,"c1cc(Nc2nncs2)cc(-c2cnn3cc(-c4cnccn4)cnc23)c1 [Example 18, [3-(6-Pyrazin-2-yl-pyrazolo[1,5-a]pyrimidin-3-yl)-phenyl]-[1,3,4]thiadiazol-2-yl-amine]"
< 1000,,,,"Fc1ccc(-c2ccn3c(-c4cccc(Nc5cnccn5)c4)cnc3c2)cc1 [Example 1, {3-[7-(4-Fluoro-phenyl)-imidazo[1,2-a]pyridin-3-yl]-phenyl}-pyrazin-2-yl-amine]"
< 1000,< 1000,,,"O=C1CN(Cc2cccc(-c3ccn4c(-c5cccc(Nc6nncs6)c5)cnc4c3)c2)CCN1 [Example 28, 4-(3-{3-[3-([1,3,4]Thiadiazol-2-ylamino)-phenyl]-imidazo[1,2-a]pyridin-7-yl}-benzyl)-piperazin-2-one Formate]"
< 1000,,,,"Fc1ccc(-c2ccn3c(-c4cccc(Nc5ccncc5)c4)cnc3c2)cc1 [Example 6, {3-[7-(4-Fluoro-phenyl)-imidazo[1,2-a]pyridin-3-yl]-phenyl}-pyridin-4-yl-amine formate salt]"
< 1000,,,,"CC(=O)N1CCN(c2ccn3c(-c4cccc(Nc5nncs5)c4)cnc3c2)CC1 [Example 38, 1-(4-{3-[3-([1,3,4]Thiadiazol-2-ylamino)-phenyl]-imidazo[1,2-a]pyridin-7-yl}-piperazin-1-yl)-ethanone]"
< 1000,,,,"c1cc(Nc2nncs2)cc(-c2cnc3cc(N4CCOCC4)ccn23)c1 [Example 19, [3-(7-Morpholin-4-yl-imidazo[1,2-a]pyridin-3-yl)-phenyl]-[1,3,4]thiadiazol-2-yl-amine]"
< 1000,,,480,"Cn1ccnc1Nc1cccc(-c2cnc3cc(-c4ccc(F)cc4)ccn23)c1 [Example 34, {3-[7-(4-Fluoro-phenyl)-imidazol[1,2-a]pyridin-3-yl]-phenyl}-(1-methyl-1H-imidazol-2-yl)-amine Hydrochloride]"
< 1000,,,,c1cc(Nc2nncs2)cc(-c2cnc3cc(-c4ccnc(OC5CCOCC5)c4)ccn23)c1 [Example 33]
< 1000,,,11,"Fc1ccc(-c2ccn3c(-c4cccc(Nc5nnco5)c4)cnc3c2)cc1 [Example 29, {3-[7-(4-Fluoro-phenyl)-imidazo[1,2-a]pyridin-3-yl]phenyl}-[1,3,4]oxadiazol-2-yl-amine]"
< 1000,,,,"Cc1ccn2c(-c3cccc(Nc4nncs4)c3)cnc2c1 [Example 41, [3-(7-Methyl-imidazo[1,2-a]pyridin-3-yl)phenyl]-[1,3,4]thiadiazol-2-yl-amine Hydrochloride]"
< 1000,,,350,"Fc1ccc(-c2cnc3c(-c4cc(Nc5nncs5)ccn4)cnn3c2)cc1 [Example 31, {2-[6-(4-Fluoro-phenyl)-pyrazolo[1,5-a]pyrimidin-3-yl]-pyridin-4-yl}-[1,3,4]thiadiazol-2-yl-amine]"
< 1000,,,115,"Fc1ccc(-c2ccn3c(-c4cccc(Nc5ncns5)c4)cnc3c2)cc1 [Example 39, {3-[7-(4-Fluoro-phenyl)-imidazo[1,2-a]pyridin-3-yl]phenyl}-[1,2,4]thiadiazol-5-yl-amine]"
< 1000,,,,"OCc1cccc(-c2ccn3c(-c4cccc(Nc5nncs5)c4)cnc3c2)c1 [Example 35, (3-{3-[3-([1,3,4]Thiadiazol-2-ylamino)-phenyl]-imidazo[1,2-a]pyridin-7-yl}-phenyl)-methanol]"
< 1000,,,2.55,"Nc1ccc(-c2ccn3c(-c4cccc(Nc5nncs5)c4)cnc3c2)cn1 [Example 37, 5-{3-[3-([1,3,4]Thiadiazol-2-ylamino)-phenyl]-imidazo[1,2-a]pyridin-7-yl}-pyridin-2-ylamine Hydrochloride]"
< 1000,,,,"Cn1cc(-c2ccn3c(-c4cccc(NCc5ccccc5)c4)cnc3c2)cn1 [Example 42, Benzyl-{3-[7-(1-methyl-1H-pyrazol-4-yl)-imidazo[1,2-a]pyridin-3-yl]phenyl}-amine]"
< 1000,,,,"O=C(c1cccc(-c2ccn3c(-c4cccc(Nc5nncs5)c4)cnc3c2)c1)N1CCOCC1 [Example 22, Morpholin-4-yl-(3-{3-[3-([1,3,4]thiadiazol-2-ylamino)-phenyl]-imidazo[1,2-a]pyridin-7-yl}-phenyl)-methanone Hydrochloride]"
< 1000,,,,"CCS(=O)(=O)N1CCN(c2ccn3c(-c4cccc(Nc5nncs5)c4)cnc3c2)CC1 [Example 21, {3-[7-(4-Ethanesulfonyl-piperazin-1-yl)-imidazo[1,2-a]pyridin-3-yl]-phenyl}-[1,3,4]thiadiazol-2-yl-amine Hydrochloride]"
< 1000,,,,"Fc1ccc(-c2ccc3c(c2)ncn3-c2cccc(Nc3nncs3)c2)cc1 [Example 23, {3-[5-(4-Fluoro-phenyl)-benzoimidazol-1-yl]-phenyl}-[1,3,4]thiadiazol-2-yl-amine]"
< 1000,,,,"Clc1ccn2c(-c3cccc(Nc4cnn[nH]4)c3)cnc2c1 [the product of Procedure G1, [3-(7-Chloro-imidazo[1,2-a]pyridin-3-yl)-phenyl]-(3H-[1,2,3]triazol-4-yl)-amine]"
< 1000,,,,"CCOC(=O)N1CCN(c2ccn3c(-c4cccc(Nc5nncs5)c4)cnc3c2)CC1 [Example 36, 4-{3-[3-([1,3,4]Thiadiazol-2-ylamino)-phenyl]-imidazo[1,2-a]pyridin-7-yl}-piperazine-1-carboxylic acid ethyl ester]"
< 1000,,,,"c1ccc(Nc2cccc(-c3cnc4cc(-c5cccc(CN6CCOCC6)c5)ccn34)c2)cc1 [Example 8, {3-[7-(3-Morpholin-4-ylmethyl-phenyl)-imidazo[1,2-a]pyridin-3-yl]-phenyl}-phenyl-amine]"
